From ChEMBL document CHEMBL1152277, “Lead optimization of 4-acetylamino-2-(3,5-dimethylpyrazol-1-yl)-6-pyridylpyrimidines as A2A adenosine receptor antagonists for the treatment of Parkinson's disease” (J Med Chem, 2008)
In brackets after ≈: the same amount, converted by molar mass. Activity calls are given as the source filed them. The calls are words filed in the database; no cut-off is given here.

Legend:
[1] = target: T1, Adenosine receptor A2a (Homo sapiens, UniProt P29274); assay: Antagonist activity at human adenosine A2A receptor expressed in CHO cells assessed as inhibition of CGS-21680-induced cAMP production; type: functional, cell-based
T1 sequence (P29274 whole entry): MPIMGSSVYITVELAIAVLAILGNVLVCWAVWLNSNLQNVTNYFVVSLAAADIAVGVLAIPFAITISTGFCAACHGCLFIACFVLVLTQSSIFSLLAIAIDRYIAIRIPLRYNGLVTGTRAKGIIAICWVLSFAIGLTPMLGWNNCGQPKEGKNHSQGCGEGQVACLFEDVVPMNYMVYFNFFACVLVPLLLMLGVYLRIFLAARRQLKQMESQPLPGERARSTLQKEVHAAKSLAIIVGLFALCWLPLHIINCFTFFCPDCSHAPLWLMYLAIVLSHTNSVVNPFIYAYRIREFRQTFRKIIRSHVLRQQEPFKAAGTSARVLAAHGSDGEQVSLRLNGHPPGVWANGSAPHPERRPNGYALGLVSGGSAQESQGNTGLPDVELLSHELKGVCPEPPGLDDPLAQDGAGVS

[2] = species: Rattus norvegicus; assay: Inhibition of haloperidol-induced catalepsy in rat assessed as minimal effective dose; type: functional; conditions: read-out: MED
[3] = system: Rattus norvegicus; assay: Inhibition of haloperidol-induced catalepsy in rat at 10 mg/kg, po after 2 hrs; type: functional; parameters: scale not given: the % may be the effect or the level left
[4] = Metabolic stability in human liver microsomes assessed as intrinsic clearance by LC-MS/MS analysis; type: ADME, Microsome
[5] = species: Homo sapiens; assay: Selectivity ratio of Ki for human adenosine A1 receptor to Ki for human adenosine A2A receptor
[6] = target: Cytochrome P450 3A4 (Homo sapiens, UniProt P08684)
Sequence of Cytochrome P450 3A4 (P08684 whole entry): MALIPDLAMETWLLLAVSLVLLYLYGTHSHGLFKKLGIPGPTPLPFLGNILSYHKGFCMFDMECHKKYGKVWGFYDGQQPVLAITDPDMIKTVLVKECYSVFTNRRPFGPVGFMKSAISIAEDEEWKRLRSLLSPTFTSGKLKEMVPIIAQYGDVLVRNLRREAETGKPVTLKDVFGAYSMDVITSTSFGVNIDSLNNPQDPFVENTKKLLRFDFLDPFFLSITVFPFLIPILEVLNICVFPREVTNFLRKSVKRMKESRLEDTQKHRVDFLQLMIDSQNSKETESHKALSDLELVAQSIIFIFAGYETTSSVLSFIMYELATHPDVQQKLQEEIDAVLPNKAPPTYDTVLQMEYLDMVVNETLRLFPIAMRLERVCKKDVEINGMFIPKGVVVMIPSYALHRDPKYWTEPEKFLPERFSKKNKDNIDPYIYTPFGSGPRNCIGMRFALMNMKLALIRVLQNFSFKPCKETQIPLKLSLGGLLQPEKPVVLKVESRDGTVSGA
Description: Inhibition of CYP3A4 in human liver microsomes by LC-MS/MS analysis

[7] = target: T1, Adenosine receptor A2a; assay: Displacement of [3H][…] from human adenosine A2A receptor expressed in HEK293 cells; type: cell-based
[8] = Drug concentration in rat brain at 10 mg/kg, po after 2 hrs; type: ADME, organism-based; parameters: dose 10 mg/kg, route oral; conditions: read-out: Drug uptake
[9] = target: T2, Adenosine receptor A1 (Homo sapiens, UniProt P30542); assay: Displacement of [3H]DPCPX from human adenosine A1 receptor expressed in HEK293 cells; type: cell-based
T2 sequence (P30542 whole entry): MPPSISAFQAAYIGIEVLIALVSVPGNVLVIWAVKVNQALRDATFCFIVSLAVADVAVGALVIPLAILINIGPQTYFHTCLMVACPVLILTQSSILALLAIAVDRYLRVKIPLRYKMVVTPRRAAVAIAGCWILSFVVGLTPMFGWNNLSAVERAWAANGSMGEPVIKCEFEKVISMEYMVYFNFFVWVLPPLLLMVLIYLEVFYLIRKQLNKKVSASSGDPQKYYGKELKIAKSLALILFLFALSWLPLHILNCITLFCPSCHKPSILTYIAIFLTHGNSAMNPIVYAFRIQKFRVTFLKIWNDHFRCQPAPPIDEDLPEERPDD

[10] = Plasma concentration in rat at 10 mg/kg, po after 2 hrs; type: ADME, organism-based; parameters: dose 10 mg/kg, route oral
[11] = Metabolic stability in rat liver microsomes assessed as intrinsic clearance by LC-MS/MS analysis; type: ADME, Microsome
[12] = target: Adenosine receptor A2a (Rattus norvegicus, UniProt P30543); assay: Displacement of [3H][…] from rat adenosine A2A receptor expressed in CHO cells; type: cell-based
Sequence of Adenosine receptor A2a (Rattus norvegicus, UniProt P30543) (P30543 whole entry): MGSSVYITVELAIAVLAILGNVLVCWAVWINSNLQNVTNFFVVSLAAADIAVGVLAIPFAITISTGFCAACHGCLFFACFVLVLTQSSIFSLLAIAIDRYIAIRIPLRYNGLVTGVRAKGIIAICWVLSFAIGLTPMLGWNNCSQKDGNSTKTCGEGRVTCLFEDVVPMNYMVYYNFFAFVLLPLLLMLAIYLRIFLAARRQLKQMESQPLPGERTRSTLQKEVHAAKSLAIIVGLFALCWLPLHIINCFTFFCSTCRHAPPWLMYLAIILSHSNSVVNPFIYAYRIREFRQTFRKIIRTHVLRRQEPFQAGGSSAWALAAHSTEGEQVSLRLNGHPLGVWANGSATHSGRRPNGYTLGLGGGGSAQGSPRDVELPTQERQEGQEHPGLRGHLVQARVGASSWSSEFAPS

[13] = system: Rattus norvegicus; assay: Inhibition of haloperidol-induced catalepsy in rat at 3 mg/kg, po; type: functional, organism-based; parameters: dose 3 mg/kg
[14] = target: Voltage-gated inwardly rectifying potassium channel KCNH2 (Homo sapiens, UniProt Q12809); assay: Inhibition of human ERG by electrophysiology assay
Sequence of Voltage-gated inwardly rectifying potassium channel KCNH2 (Q12809 whole entry): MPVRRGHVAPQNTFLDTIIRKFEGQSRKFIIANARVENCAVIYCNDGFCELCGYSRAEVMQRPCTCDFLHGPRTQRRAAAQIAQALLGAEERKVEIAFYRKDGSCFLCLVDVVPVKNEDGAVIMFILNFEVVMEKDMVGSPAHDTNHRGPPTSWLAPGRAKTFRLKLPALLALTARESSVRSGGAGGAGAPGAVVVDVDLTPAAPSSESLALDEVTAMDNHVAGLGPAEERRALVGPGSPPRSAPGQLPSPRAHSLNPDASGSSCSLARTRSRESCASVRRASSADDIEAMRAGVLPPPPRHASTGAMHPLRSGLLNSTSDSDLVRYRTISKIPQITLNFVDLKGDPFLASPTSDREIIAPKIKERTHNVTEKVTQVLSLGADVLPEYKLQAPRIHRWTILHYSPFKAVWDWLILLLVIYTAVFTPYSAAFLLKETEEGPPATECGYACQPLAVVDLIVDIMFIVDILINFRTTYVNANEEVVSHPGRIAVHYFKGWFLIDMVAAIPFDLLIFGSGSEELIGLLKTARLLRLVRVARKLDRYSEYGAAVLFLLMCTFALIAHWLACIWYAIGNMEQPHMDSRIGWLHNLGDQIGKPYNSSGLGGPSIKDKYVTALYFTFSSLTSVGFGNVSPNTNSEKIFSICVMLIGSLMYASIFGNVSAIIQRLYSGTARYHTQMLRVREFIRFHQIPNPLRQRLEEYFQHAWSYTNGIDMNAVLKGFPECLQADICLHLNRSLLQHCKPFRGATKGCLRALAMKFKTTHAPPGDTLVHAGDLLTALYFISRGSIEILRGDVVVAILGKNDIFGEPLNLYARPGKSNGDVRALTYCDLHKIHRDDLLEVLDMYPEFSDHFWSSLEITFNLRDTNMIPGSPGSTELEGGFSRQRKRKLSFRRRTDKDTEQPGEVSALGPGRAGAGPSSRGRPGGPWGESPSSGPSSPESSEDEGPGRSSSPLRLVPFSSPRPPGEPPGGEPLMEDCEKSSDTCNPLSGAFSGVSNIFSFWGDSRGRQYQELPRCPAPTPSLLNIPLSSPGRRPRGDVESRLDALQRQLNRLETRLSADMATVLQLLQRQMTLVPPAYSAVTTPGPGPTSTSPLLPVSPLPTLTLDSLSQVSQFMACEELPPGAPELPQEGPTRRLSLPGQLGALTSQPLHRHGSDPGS

[15] = Aqueous solubility at pH >= […]; type: physicochemical; conditions: buffer
[16] = system: Rattus norvegicus; assay: Inhibition of haloperidol-induced catalepsy in rat at 1 mg/kg, po; type: functional, organism-based; parameters: dose 1 mg/kg
[17] = AUC (0 to 24 hrs) in rat plasma at 10 mg/kg, po; type: ADME, organism-based; parameters: time < 24 hr, dose 10 mg/kg, route oral
[18] = Permeability from apical to basolateral side of the human Caco-2 membrane by LC-MS/MS analysis; type: ADME, cell-based; conditions: read-out: permeability
[19] = Aqueous solubility in phosphate-buffered saline at pH 7.4; type: physicochemical
[20] = Lipophilicity, log D at pH 7.4; type: physicochemical; conditions: buffer
[21] = system: Rattus norvegicus; assay: Inhibition of haloperidol-induced catalepsy in rat at 30 mg/kg, po after 2 hrs; type: functional
[22] = Dissociation constant, pKa of the compound; type: physicochemical

Q: For `COCCN(C)c1cccc(-c2cc(NC(C)=O)nc(-n3nc(C)cc3C)n2)n1`, which IC50 [1] is on record?
A: 0.07 µM

Q: What about the minimal effective dose [2] of the same compound?
A: 10 mg/kg

Q: What about the Activity [3] of the same compound?
A: 70%

Q: What about the CLint scaled [4] of the same compound?
A: 3.12 L/h/kg

Q: What about the Ratio Ki [5] of the same compound?
A: 76

Q: What about the IC50 [6] of the same compound?
A: 2.5 µM

Q: What about the Ki [7] of the same compound?
A: 0.00072 µM

Q: And the concentration at 2 h [8]?
A: 870 ng/g

Q: And the Ki [9]?
A: 0.055 µM

Q: And the concentration at 2 h [10]?
A: 0.22 µg/mL

Q: What about the CLint scaled [11] of the same compound?
A: 29.4 L/h/kg

Q: What about the Ki [12] of the same compound?
A: 0.014 µM

Q: Which results are given for `COc1cncc(-c2cc(NC(C)=O)nc(-n3nc(C)cc3C)n2)c1`?
A: IC50 [1]: 0.057 µM; minimal effective dose [2]: 1 mg/kg; Activity [3]: 64%; CLint scaled [4]: 2.1 L/h/kg; Ratio Ki [5]: 82; IC50 [6]: 18 µM; Ki [7]: 0.0023 µM; Ki [9]: 0.19 µM; CLint scaled [11]: 7.2 L/h/kg; Activity [13]: Active; IC50 [14]: 24 µM; solubility [15]: < 0.01 mg/mL; Ki [12]: 0.062 µM; Activity [16]: Active; AUC(0-t) at 24 h [17]: 1.43 µg·h/mL

Q: With `CC(=O)Nc1cc(-c2cccc(N(C)C)n2)nc(-n2nc(C)cc2C)n1` as the compound, how does the IC50 [1] read?
A: 0.156 µM

Q: What about the minimal effective dose [2] of the same compound?
A: 30 mg/kg

Q: What about the CLint scaled [4] of the same compound?
A: 3.24 L/h/kg

Q: And the Ratio Ki [5]?
A: 133

Q: And the IC50 [6]?
A: 25 µM

Q: What about the Ki [7] of the same compound?
A: 0.00061 µM

Q: And the concentration at 2 h [8]?
A: 180 ng/g

Q: And the Ki [9]?
A: 0.081 µM

Q: And the concentration at 2 h [10]?
A: 0.29 µg/mL

Q: And the CLint scaled [11]?
A: 96 L/h/kg

Q: And the Ki [12]?
A: 0.02 µM

Q: Which CLint scaled [4] does the source give for `CC(=O)Nc1cc(-c2cncc(N3CCOCC3)c2)nc(-n2nc(C)cc2C)n1` here?
A: 0.72 L/h/kg

Q: And the Ratio Ki [5]?
A: 74

Q: And the IC50 [6]?
A: > 20 µM

Q: And the Ki [7]?
A: 0.003 µM

Q: What about the Ki [9] of the same compound?
A: 0.22 µM

Q: And the CLint scaled [11]?
A: 9 L/h/kg

Q: With `CC(=O)Nc1cc(-c2ccncc2)nc(-n2nc(C)cc2C)n1` as the compound, how does the Ratio Ki [5] read?
A: 21

Q: What about the IC50 [6] of the same compound?
A: 8.5 µM

Q: And the Ki [7]?
A: 0.04 µM

Q: What about the Ki [9] of the same compound?
A: 0.82 µM

Q: With `COC(=O)Nc1cc(-c2cncc(OC)c2)nc(-n2nc(C)cc2C)n1` as the compound, how does the IC50 [1] read?
A: 0.167 µM

Q: What about the minimal effective dose [2] of the same compound?
A: 10 mg/kg

Q: What about the Activity [3] of the same compound?
A: 46%

Q: What about the CLint scaled [4] of the same compound?
A: 0.96 L/h/kg

Q: And the Ratio Ki [5]?
A: 106

Q: And the IC50 [6]?
A: 16 µM

Q: And the Ki [7]?
A: 0.0074 µM

Q: And the Ki [9]?
A: 0.78 µM

Q: And the CLint scaled [11]?
A: 5.58 L/h/kg

Q: And the Ki [12]?
A: 0.068 µM

Q: For `CC(=O)Nc1cc(-c2cccc(N3CCCC3)n2)nc(-n2nc(C)cc2C)n1`, which Ratio Ki [5] is on record?
A: 28

Q: And the IC50 [6]?
A: > 20 µM

Q: What about the Ki [7] of the same compound?
A: 0.00026 µM

Q: What about the Ki [9] of the same compound?
A: 0.0072 µM

Q: What does the source list for `COc1cc(OC)cc(-c2cc(NC(C)=O)nc(-n3nc(C)cc3C)n2)c1`?
A: IC50 [1]: 0.017 µM; minimal effective dose [2]: 1 mg/kg; Activity [3]: 49%; Papp A→B [18]: 24 nm/s; solubility [19]: < 0.02 mg/mL; CLint scaled [4]: 0.558 L/h/kg; Ratio Ki [5]: 116; IC50 [6]: 0.38 µM; Ki [7]: 0.00019 µM; concentration at 2 h [8]: 1150 ng/g; Ki [9]: 0.022 µM; concentration at 2 h [10]: 1.33 µg/mL; CLint scaled [11]: 6.6 L/h/kg; Ki [12]: 0.003 µM; logD [20]: 3.2

Q: With `CC(=O)Nc1cc(-c2ccccc2)nc(-n2nc(C)cc2C)n1` as the compound, how does the Ratio Ki [5] read?
A: 3.3

Q: What about the IC50 [6] of the same compound?
A: 43 µM

Q: And the Ki [9]?
A: 0.29 µM

Q: What does the source list for `CCOC(=O)Nc1cc(-c2cncc(OC)c2)nc(-n2nc(C)cc2C)n1`?
A: IC50 [1]: 0.196 µM; CLint scaled [4]: 2.28 L/h/kg; Ratio Ki [5]: 79; IC50 [6]: 20 µM; Ki [7]: 0.0078 µM; Ki [9]: 0.62 µM; CLint scaled [11]: 3.54 L/h/kg; Activity [21]: inactive; Ki [12]: 0.082 µM

Q: With `COc1cccc(-c2cc(NC(C)=O)nc(-n3nc(C)cc3C)n2)c1` as the compound, how does the Ratio Ki [5] read?
A: 71

Q: What about the IC50 [6] of the same compound?
A: 0.74 µM

Q: What about the Ki [7] of the same compound?
A: 0.00092 µM

Q: What about the Ki [9] of the same compound?
A: 0.065 µM

Q: With `COC1CN(c2cccc(-c3cc(NC(C)=O)nc(-n4nc(C)cc4C)n3)n2)C1` as the compound, how does the IC50 [1] read?
A: 0.018 µM

Q: And the solubility [19]?
A: 0.03 mg/mL (≈ 76.2 µM)

Q: What about the CLint scaled [4] of the same compound?
A: 1.5 L/h/kg

Q: What about the Ratio Ki [5] of the same compound?
A: 72

Q: What about the IC50 [6] of the same compound?
A: 11 µM

Q: And the Ki [7]?
A: 0.00047 µM

Q: What about the concentration at 2 h [8] of the same compound?
A: 560 ng/g

Q: And the Ki [9]?
A: 0.034 µM

Q: What about the concentration at 2 h [10] of the same compound?
A: 0.15 µg/mL

Q: And the CLint scaled [11]?
A: 9.6 L/h/kg

Q: And the Ki [12]?
A: 0.0015 µM

Q: What about the logD [20] of the same compound?
A: 3.6

Q: And the pKa [22]?
A: 3.4

Q: Which results are given for `COc1cccc(-c2cc(NC(C)=O)nc(-n3nc(C)cc3C)n2)c1F`?
A: IC50 [1]: 0.032 µM; Papp A→B [18]: 260 nm/s; solubility [19]: 0.17 mg/mL (≈ 478 µM); CLint scaled [4]: 2.16 L/h/kg; Ratio Ki [5]: 187; IC50 [6]: > 20 µM; Ki [7]: 0.0006 µM; Ki [9]: 0.11 µM; CLint scaled [11]: 21.6 L/h/kg; Activity [21]: inactive; Ki [12]: 0.012 µM; logD [20]: 2
